{
  "source": "paper PMC5845353",
  "about": "“The selective cathepsin K inhibitor MIV-711 attenuates joint pathology in experimental animal models of osteoarthritis” (Journal of Translational Medicine, 2018)",
  "system": "dogs subjected to partial medial meniscectomy",
  "experiment": "Dog partial medial meniscectomy study, microscopic cartilage degeneration scores",
  "format": "in vivo",
  "design": "key to Total Joint CD Score: sum of tibial and femoral degeneration scores (1=minimal…3=moderate)",
  "excerpt": "The proximal end of the left tibia and the distal end of the left femur were removed using a hacksaw and collected into 10% neutral buffered formalin. Bones were allowed to fix for 5 days and then the tissues were placed in formic acid decalcifier (5-20%). After decalcification, the surface area at risk for lesion development of the tibia (medial and lateral plateaus) and femur (medial and lateral condyles) was divided into 3 slabs (anterior to posterior) approximately 2-4 mm thick for processing, embedding, sectioning (8 µm) and staining (Toluidine Blue). The lesions are in reasonably consistent locations in all animals, therefore, the same surfaces and area were consistently embedded for all animals. Blocks containing tissue were numbered 1-3 with 1 being the most anterior piece. In all cases, the anterior aspect of the tissue was embedded down in the cassette for sectioning.\nCompartmentalized lesions on medial tibia and medial femur (cartilage degeneration and osteophytes) were scored for each of the 3 (anterior to posterior) sections using the following system:\n1=minimal degeneration, chondrocyte and proteoglycan loss with or without fibrillation involving the superficial zone or extending into the upper 10% of the cartilage thickness or at least 5% but not more than 10% overall total proteoglycan and cell loss in the zone if lesion is focal and deeper in some areas. Deeper and more extensive proteoglycan loss only without any evidence of chondrocyte loss and collagen damage is also given a score of 1 as this is a minor and reversible change\n2=mild degeneration, chondrocyte and proteoglycan loss with fibrillation involving mainly the upper 11-25% of cartilage thickness, fibrillation generally superficial (upper 10%) while chondrocyte and proteoglycan loss extend into approximately 11-25% of the cartilage depth, or 11-25% overall chondrocyte and proteoglycan loss in the zone if lesion is focal and deeper in some areas. Deeper areas of proteoglycan loss only, without chondrocyte loss or collagen disruption (reversible changes) may be present\n3=moderate degeneration, chondrocyte and proteoglycan loss with fibrillation extending well into the midzone and generally affecting 1/2 (50%) of the total cartilage thickness, fibrillation/collagen damage generally extends into upper 25% while chondrocyte and proteoglycan loss extend through 50% thickness, or 26-50% overall chondrocyte and proteoglycan loss in the zone if lesion is focal and deeper in some areas. Deeper areas of proteoglycan loss only, without chondrocyte loss or collagen disruption (reversible changes) may be present\n4=marked degeneration, chondrocyte and proteoglycan loss with fibrillation extending through the mid zone through 3/4 f the depth (51-75% of cartilage thickness) but without complete (to the tidemark) loss of chondrocytes or proteoglycan, fibrillation/collagen damage generally extend through the mid zone (50% thickness) but deep zone collagen remains intact, or 51-75% overall chondrocyte and proteoglycan loss in the zone if lesion is focal and deeper in some areas. Deeper areas of proteoglycan loss only, without chondrocyte loss or collagen disruption (reversible changes) may be present\n5=severe degeneration, chondrocyte and proteoglycan loss to near tidemark (76-100% of depth) with slightly less severe collagen damage or 76-100% overall chondrocyte and proteoglycan loss in the zone.\nEach medial tibial plateau and medial femoral condyle anterior to posterior section was further divided visually with an ocular micrometer into fourths and numbered 1,2,3,4 with 1 being the outside and 4 being the inside quadrant. A mean score for the four levels was calculated. In addition, means of the 3 sections for each quadrant were determined in order to convey lesion severity in various axial to abaxial locations. Overall tibial and femoral values were summed for a total joint cartilage degeneration score.",
  "key": {"[1]": {"conditions": "individual dogs of MIV-711 group"}, "[2]": {"conditions": "individual dogs of MIV-711 group, score=depth (1-5), mean of 4 quadrants"}},
  "note": "Several values for one entry are separate records, joined by “and”; a condition that tells them apart may be missing. Identical values can stand only once.",
  "data": [
    {"molecule": "C#C[C@@H]1CN(C(=O)[C@H](CC(C)C)NC(=O)c2ccc(-c3nc(N4CCN(C)CC4)sc3F)cc2)[C@@H]2C(=O)CO[C@H]12", "note": "[MIV-711]", "values": [
      {"measurement": "Femur Cartilage Degeneration Score Level 1", "setting": "MIV-711 group mean", "value": 0.57},
      {"measurement": "Femur Cartilage Degeneration Score Level 2", "setting": "MIV-711 group mean", "value": 0.65},
      {"measurement": "Femur Cartilage Degeneration Score Level 3", "setting": "MIV-711 group mean", "value": 0.77},
      {"measurement": "Femur Cartilage Degeneration Score Mean", "setting": "MIV-711 group mean", "value": 0.66},
      {"measurement": "Femur Cartilage Degeneration Score Zone 1", "setting": "MIV-711 group mean", "value": 1.16},
      {"measurement": "Femur Cartilage Degeneration Score Zone 2", "setting": "MIV-711 group mean", "value": 1.09},
      {"measurement": "Femur Cartilage Degeneration Score Zone 3", "setting": "MIV-711 group mean", "value": 0.33},
      {"measurement": "Femur Cartilage Degeneration Score Zone 4", "setting": "MIV-711 group mean", "value": 0.07},
      {"measurement": "Tibia Cartilage Degeneration Score Level 1", "setting": "MIV-711 group mean", "value": 0.60},
      {"measurement": "Tibia Cartilage Degeneration Score Level 2", "setting": "MIV-711 group mean", "value": 1.22},
      {"measurement": "Tibia Cartilage Degeneration Score Level 3", "setting": "MIV-711 group mean", "value": 0.92},
      {"measurement": "Tibia Cartilage Degeneration Score Mean", "setting": "MIV-711 group mean", "value": 0.91},
      {"measurement": "Tibia Cartilage Degeneration Score Zone 1", "setting": "MIV-711 group mean", "value": 0.33},
      {"measurement": "Tibia Cartilage Degeneration Score Zone 2", "setting": "MIV-711 group mean", "value": 1.76},
      {"measurement": "Tibia Cartilage Degeneration Score Zone 3", "setting": "MIV-711 group mean", "value": 1.02},
      {"measurement": "Tibia Cartilage Degeneration Score Zone 4", "setting": "MIV-711 group mean", "value": 0.53},
      {"measurement": "Total Joint CD Score", "setting": "MIV-711 group mean", "value": 1.57},
      {"measurement": "% inhibition, Femur Cartilage Degeneration Score Level 1", "setting": "MIV-711 group vs vehicle", "value": 13, "unit": "%"},
      {"measurement": "% inhibition, Femur Cartilage Degeneration Score Level 2", "setting": "MIV-711 group vs vehicle", "value": 0, "unit": "%"},
      {"measurement": "% inhibition, Femur Cartilage Degeneration Score Level 3", "setting": "MIV-711 group vs vehicle", "value": 8, "unit": "%"},
      {"measurement": "% inhibition, Femur Cartilage Degeneration Score Mean", "setting": "MIV-711 group vs vehicle", "value": 7, "unit": "%"},
      {"measurement": "% inhibition, Femur Cartilage Degeneration Score Zone 1", "setting": "MIV-711 group vs vehicle", "value": -6, "unit": "%"},
      {"measurement": "% inhibition, Femur Cartilage Degeneration Score Zone 2", "setting": "MIV-711 group vs vehicle", "value": 6, "unit": "%"},
      {"measurement": "% inhibition, Femur Cartilage Degeneration Score Zone 3", "setting": "MIV-711 group vs vehicle", "value": 32, "unit": "%"},
      {"measurement": "% inhibition, Femur Cartilage Degeneration Score Zone 4", "setting": "MIV-711 group vs vehicle", "value": 40, "unit": "%"},
      {"measurement": "% inhibition, Tibia Cartilage Degeneration Score Level 1", "setting": "MIV-711 group vs vehicle", "value": 41, "unit": "%"},
      {"measurement": "% inhibition, Tibia Cartilage Degeneration Score Level 2", "setting": "MIV-711 group vs vehicle", "value": 9, "unit": "%"},
      {"measurement": "% inhibition, Tibia Cartilage Degeneration Score Level 3", "setting": "MIV-711 group vs vehicle", "value": -38, "unit": "%"},
      {"measurement": "% inhibition, Tibia Cartilage Degeneration Score Mean", "setting": "MIV-711 group vs vehicle", "value": 9, "unit": "%"},
      {"measurement": "% inhibition, Tibia Cartilage Degeneration Score Zone 1", "setting": "MIV-711 group vs vehicle", "value": 48, "unit": "%"},
      {"measurement": "% inhibition, Tibia Cartilage Degeneration Score Zone 2", "setting": "MIV-711 group vs vehicle", "value": 0, "unit": "%"},
      {"measurement": "% inhibition, Tibia Cartilage Degeneration Score Zone 3", "setting": "MIV-711 group vs vehicle", "value": 8, "unit": "%"},
      {"measurement": "% inhibition, Tibia Cartilage Degeneration Score Zone 4", "setting": "MIV-711 group vs vehicle", "value": -4, "unit": "%"},
      {"measurement": "% inhibition, Total Joint CD Score", "setting": "MIV-711 group vs vehicle", "value": 8, "unit": "%"},
      {"measurement": "decrease in cartilage degeneration scores in level 1 (anterior) of the tibia", "setting": "dog, 30 µmol/kg vs vehicle, statistically significant", "value": 41, "unit": "%"},
      {"measurement": "Femur Cartilage Degeneration Score Zone 1", "setting": "[1]", "value": "1.00 and 0.33 and 2.00 and 1.33 and 0.67"},
      {"measurement": "Femur Cartilage Degeneration Score Zone 2", "setting": "[1]", "value": "1.33 and 1.67 and 0.00 and 2.00 and 1.00 and 0.33 and 2.33"},
      {"measurement": "Femur Cartilage Degeneration Score Zone 3", "setting": "[1]", "value": "0.33 and 0.00 and 1.33 and 1.67"},
      {"measurement": "Femur Cartilage Degeneration Score Zone 4", "setting": "[1]", "value": "0.00 and 0.33"},
      {"measurement": "Tibia Cartilage Degeneration Score Zone 1", "setting": "[1]", "value": "0.33 and 0.67 and 0.00 and 1.00"},
      {"measurement": "Tibia Cartilage Degeneration Score Zone 2", "setting": "[1]", "value": "1.67 and 1.33 and 2.00 and 2.33"},
      {"measurement": "Tibia Cartilage Degeneration Score Zone 3", "setting": "[1]", "value": "1.33 and 1.00 and 1.67 and 0.67 and 0.33"},
      {"measurement": "Tibia Cartilage Degeneration Score Zone 4", "setting": "[1]", "value": "0.67 and 0.33 and 0.00 and 1.00"},
      {"measurement": "Total Joint CD Score", "setting": "[1]", "value": "1.08 and 1.67 and 1.75 and 0.75 and 2.42 and 1.33 and 1.50 and 1.25 and 2.00 and 1.83 and 3.00"},
      {"measurement": "Femur Cartilage Degeneration Score Level 1", "setting": "[2]", "value": "0.50 and 0.25 and 0.75 and 1.00"},
      {"measurement": "Femur Cartilage Degeneration Score Level 2", "setting": "[2]", "value": "0.50 and 1.00 and 0.00 and 1.75 and 0.75 and 0.25"},
      {"measurement": "Femur Cartilage Degeneration Score Level 3", "setting": "[2]", "value": "0.50 and 1.00 and 0.00 and 1.50 and 0.25 and 1.25 and 0.75 and 2.00"},
      {"measurement": "Femur Cartilage Degeneration Score Mean", "setting": "[2]", "value": "0.50 and 0.67 and 0.83 and 0.08 and 1.33 and 0.58 and 0.33 and 0.25 and 1.58"},
      {"measurement": "Tibia Cartilage Degeneration Score Level 1", "setting": "[2]", "value": "0.25 and 0.00 and 0.50 and 1.25 and 0.75 and 1.00 and 1.50"},
      {"measurement": "Tibia Cartilage Degeneration Score Level 2", "setting": "[2]", "value": "1.00 and 1.25 and 1.75 and 1.50 and 0.50"},
      {"measurement": "Tibia Cartilage Degeneration Score Level 3", "setting": "[2]", "value": "0.50 and 1.50 and 1.00 and 1.25 and 0.75 and 0.00"},
      {"measurement": "Tibia Cartilage Degeneration Score Mean", "setting": "[2]", "value": "0.58 and 1.00 and 0.92 and 0.67 and 1.08 and 0.75 and 1.17 and 0.42 and 1.42"}
    ]}
  ]
}
